From ChEMBL document CHEMBL5291721, “A preclinical secondary pharmacology resource illuminates target-adverse drug reaction associations of marketed drugs” (Nat Commun, 2023)

Columns and labels:
[1] = target: T1, Alpha-1A adrenergic receptor (Homo sapiens, UniProt P35348)
T1 sequence (P35348 whole entry): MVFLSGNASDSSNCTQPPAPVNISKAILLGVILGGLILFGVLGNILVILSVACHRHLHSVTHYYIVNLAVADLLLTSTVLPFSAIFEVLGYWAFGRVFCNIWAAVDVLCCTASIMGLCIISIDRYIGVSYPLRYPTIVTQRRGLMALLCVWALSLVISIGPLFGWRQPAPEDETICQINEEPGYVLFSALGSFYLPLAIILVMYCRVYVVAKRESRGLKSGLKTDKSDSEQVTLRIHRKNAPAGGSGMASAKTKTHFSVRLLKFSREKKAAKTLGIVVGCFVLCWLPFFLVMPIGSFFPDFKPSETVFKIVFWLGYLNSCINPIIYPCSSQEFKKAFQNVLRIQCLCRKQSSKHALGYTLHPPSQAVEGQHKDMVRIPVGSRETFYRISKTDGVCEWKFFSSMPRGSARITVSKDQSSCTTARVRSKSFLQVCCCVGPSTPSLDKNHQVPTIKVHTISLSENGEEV

[2] = target: T2, Muscarinic acetylcholine receptor M1 (Homo sapiens, UniProt P11229)
T2 sequence (P11229 whole entry): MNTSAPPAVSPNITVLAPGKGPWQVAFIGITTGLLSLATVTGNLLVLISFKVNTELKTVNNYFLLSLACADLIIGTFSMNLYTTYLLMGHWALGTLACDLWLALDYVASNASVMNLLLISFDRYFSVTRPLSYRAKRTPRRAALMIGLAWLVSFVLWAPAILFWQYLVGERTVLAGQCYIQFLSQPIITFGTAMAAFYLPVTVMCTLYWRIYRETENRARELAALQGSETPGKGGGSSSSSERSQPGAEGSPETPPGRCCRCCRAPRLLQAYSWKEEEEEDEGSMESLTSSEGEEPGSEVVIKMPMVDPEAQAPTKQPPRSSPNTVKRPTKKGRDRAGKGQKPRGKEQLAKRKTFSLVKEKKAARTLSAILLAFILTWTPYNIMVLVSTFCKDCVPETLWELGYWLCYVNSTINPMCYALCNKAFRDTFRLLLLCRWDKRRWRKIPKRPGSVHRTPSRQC

[3] = target: T3, Alpha-2A adrenergic receptor (Homo sapiens, UniProt P08913)
T3 sequence (P08913 whole entry): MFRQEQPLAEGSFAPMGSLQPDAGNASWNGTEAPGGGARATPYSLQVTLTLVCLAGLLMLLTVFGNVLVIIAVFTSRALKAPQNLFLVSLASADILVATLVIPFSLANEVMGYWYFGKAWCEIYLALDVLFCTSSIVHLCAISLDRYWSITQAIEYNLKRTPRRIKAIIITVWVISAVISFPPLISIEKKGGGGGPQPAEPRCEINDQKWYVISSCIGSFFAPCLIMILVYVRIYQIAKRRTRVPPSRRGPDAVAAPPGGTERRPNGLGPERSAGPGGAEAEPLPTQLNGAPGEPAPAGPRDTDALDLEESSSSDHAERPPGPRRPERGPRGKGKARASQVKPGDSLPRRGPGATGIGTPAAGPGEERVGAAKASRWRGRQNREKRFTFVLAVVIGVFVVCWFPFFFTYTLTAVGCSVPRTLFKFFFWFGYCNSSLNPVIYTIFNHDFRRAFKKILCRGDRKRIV

Estrogen receptor beta = Estrogen receptor beta (Homo sapiens, UniProt Q92731)
Sequence of Estrogen receptor beta (Q92731 whole entry): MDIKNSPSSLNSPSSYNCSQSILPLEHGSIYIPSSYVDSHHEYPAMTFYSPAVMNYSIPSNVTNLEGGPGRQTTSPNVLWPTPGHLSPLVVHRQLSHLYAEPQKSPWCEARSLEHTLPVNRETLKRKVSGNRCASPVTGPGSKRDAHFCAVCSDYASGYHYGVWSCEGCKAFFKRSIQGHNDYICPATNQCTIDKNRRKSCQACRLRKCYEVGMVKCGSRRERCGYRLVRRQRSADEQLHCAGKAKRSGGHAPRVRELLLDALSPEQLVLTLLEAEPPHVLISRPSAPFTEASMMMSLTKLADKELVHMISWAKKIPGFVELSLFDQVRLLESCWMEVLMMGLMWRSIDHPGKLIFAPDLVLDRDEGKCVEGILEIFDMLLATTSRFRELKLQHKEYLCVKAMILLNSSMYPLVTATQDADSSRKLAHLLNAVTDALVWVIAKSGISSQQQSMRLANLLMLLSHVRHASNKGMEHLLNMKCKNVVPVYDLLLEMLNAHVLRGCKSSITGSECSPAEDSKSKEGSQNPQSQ

[4] = target: T4, Muscarinic acetylcholine receptor M2 (Homo sapiens, UniProt P08172)
T4 sequence (P08172 whole entry): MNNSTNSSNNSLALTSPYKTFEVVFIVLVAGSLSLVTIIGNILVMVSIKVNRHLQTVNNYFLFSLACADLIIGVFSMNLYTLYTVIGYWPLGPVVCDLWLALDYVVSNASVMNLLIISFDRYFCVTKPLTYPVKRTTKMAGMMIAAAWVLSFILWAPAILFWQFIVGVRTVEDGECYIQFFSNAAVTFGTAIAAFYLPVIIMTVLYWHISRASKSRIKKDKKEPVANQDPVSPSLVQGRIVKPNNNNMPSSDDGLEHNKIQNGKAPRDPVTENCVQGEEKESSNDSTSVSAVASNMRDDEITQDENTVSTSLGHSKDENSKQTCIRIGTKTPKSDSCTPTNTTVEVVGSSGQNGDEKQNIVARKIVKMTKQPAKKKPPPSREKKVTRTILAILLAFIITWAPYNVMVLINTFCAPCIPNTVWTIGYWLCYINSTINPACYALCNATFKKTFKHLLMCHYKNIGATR

[5] = target: T5, Gastric inhibitory polypeptide receptor (Homo sapiens, UniProt P48546)
T5 sequence (P48546 whole entry): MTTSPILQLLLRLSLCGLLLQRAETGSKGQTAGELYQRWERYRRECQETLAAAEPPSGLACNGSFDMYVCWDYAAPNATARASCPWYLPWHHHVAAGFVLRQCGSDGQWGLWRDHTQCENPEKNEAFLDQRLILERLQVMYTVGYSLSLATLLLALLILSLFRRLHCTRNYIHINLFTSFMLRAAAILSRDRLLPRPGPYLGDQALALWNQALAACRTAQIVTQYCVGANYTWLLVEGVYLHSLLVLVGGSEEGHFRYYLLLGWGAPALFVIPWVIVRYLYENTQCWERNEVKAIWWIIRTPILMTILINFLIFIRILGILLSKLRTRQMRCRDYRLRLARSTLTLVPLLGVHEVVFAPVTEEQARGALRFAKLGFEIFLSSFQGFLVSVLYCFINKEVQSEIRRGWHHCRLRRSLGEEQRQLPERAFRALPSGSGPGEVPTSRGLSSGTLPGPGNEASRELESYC

[6] = target: T6, Peroxisome proliferator-activated receptor gamma (Homo sapiens, UniProt P37231); assay type: functional
T6 sequence (P37231 whole entry): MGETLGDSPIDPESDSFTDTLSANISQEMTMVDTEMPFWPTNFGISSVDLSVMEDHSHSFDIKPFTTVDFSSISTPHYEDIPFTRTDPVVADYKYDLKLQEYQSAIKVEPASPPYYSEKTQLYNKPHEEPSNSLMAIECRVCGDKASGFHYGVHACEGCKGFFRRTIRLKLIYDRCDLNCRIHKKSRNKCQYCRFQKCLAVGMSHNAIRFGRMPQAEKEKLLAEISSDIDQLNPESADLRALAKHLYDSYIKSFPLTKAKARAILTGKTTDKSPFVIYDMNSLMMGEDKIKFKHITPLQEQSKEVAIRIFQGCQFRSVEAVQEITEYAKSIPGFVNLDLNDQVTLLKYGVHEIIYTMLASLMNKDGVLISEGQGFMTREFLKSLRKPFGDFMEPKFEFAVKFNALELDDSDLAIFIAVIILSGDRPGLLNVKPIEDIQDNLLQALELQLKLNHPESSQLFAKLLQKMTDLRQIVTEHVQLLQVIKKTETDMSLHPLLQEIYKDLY

Histamine H1 receptor = Histamine H1 receptor (Homo sapiens, UniProt P35367); assay type: functional, cell-based
Sequence of Histamine H1 receptor (P35367 whole entry): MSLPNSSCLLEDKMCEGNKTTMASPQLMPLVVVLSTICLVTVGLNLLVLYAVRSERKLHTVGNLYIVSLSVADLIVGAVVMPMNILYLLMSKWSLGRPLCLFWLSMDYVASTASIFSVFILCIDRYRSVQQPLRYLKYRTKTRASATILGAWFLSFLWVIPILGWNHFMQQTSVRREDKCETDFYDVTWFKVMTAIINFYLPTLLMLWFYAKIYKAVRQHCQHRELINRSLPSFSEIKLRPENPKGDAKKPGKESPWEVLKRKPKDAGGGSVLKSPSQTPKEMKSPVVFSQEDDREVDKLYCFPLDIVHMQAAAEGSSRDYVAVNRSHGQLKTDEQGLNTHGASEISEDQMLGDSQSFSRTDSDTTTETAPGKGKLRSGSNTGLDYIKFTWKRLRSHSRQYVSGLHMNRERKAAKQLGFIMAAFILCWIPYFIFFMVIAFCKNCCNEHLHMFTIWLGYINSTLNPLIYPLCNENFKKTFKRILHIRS
Further: assay procedure not described here.

In the case of `C[C@@H](O)[C@H]1C(=O)N2C(C(=O)O)=C(S[C@@H]3CN[C@H](C(=O)Nc4cccc(C(=O)O)c4)C3)[C@H](C)[C@H]12`, the AC50 [1] is reported as over 30 µM and the AC50 [2] is reported as over 30 µM.

`CC(=O)OC1CN2CCC1CC2` (stereo not given) [ACECLIDINE] gave an AC50 [1] of over 30 µM.

With `N=C(N)NC(=O)c1nc(Cl)c(N)nc1N` [AMILORIDE] the AC50 [3] was over 10 µM, the AC50 (Estrogen receptor beta) was over 30 µM and the AC50 [4] was over 10 µM. It also gave an AC50 [5] of over 30 µM.

For `CC(=O)Nc1ccc(/C=N/NC(N)=S)cc1` [AMITHIOZONE], the AC50 [1] was over 30 µM and the AC50 [2] was over 30 µM.

Work on `C[C@]12C=CC(=O)C=C1C(Cl)=C[C@@H]1[C@@H]2[C@@H](O)C[C@@]2(C)[C@H]1CC[C@]2(O)C(=O)CO` [CLOPREDNOL] yielded an AC50 [6] of over 30 µM and an AC50 (Histamine H1 receptor) of over 30 µM.

For `COc1cccc2c1C(=O)c1c(O)c3c(c(O)c1C2=O)C[C@@](O)(C(=O)CO)C[C@@H]3O[C@H]1C[C@H](N)[C@H](O)[C@H](C)O1` [DOXORUBICIN], the AC50 [3] was over 10 µM and the AC50 [6] was over 10 µM.

`CC(C)(Oc1ccc(Cl)cc1)C(=O)OCCOC(=O)c1cccnc1` [ETOFIBRATE] was tested, and the AC50 [6] was over 30 µM.

`CCn1c(=O)c2c(nc(/C=C/c3ccc(OC)c(OC)c3)n2C)n(CC)c1=O` [ISTRADEFYLLINE] was tested, and the AC50 (Histamine H1 receptor) was over 30 µM.

Compound `CSCC[C@H](N)C(=O)O` [METHIONINE] has an AC50 [1] of over 30 µM and an AC50 [2] of over 30 µM.

`OC(CN1CCCCC1)c1cc(-c2ccccc2)on1` (stereo not given) [PERISOXAL] was tested, and the AC50 [1] was 3.86 µM and the AC50 [2] was 20.4 µM.

`C[C@]12C=CC(=O)C=C1CC[C@@H]1[C@@H]2[C@@H](O)C[C@@]2(C)[C@H]1CC[C@]2(O)C(=O)CO` [PREDNISOLONE] showed an AC50 (Estrogen receptor beta) of over 30 µM, an AC50 [4] of over 10 µM and an AC50 [5] of over 30 µM.

For `CCC(=O)c1ccc2c(c1)N(CC(C)N(C)C)c1ccccc1S2` (stereo not given) [PROPIOMAZINE], the AC50 [4] was 0.265 µM.

`Cc1ccc(O)c([C@H](CCN(C(C)C)C(C)C)c2ccccc2)c1` [TOLTERODINE] gave an AC50 [3] of over 10 µM.

With `Oc1cc(Cl)ccc1Oc1ccc(Cl)cc1Cl` [TRICLOSAN] the AC50 (Histamine H1 receptor) was over 30 µM.
